IC50 and Ki data for 35 molecules are collected here from patent US8278345B2, “Inhibitors of glutaminyl cyclase” (Probiodrug AG, priority 2006, dated 2012).

SMILES strings stand for the structures. Read-outs that look alike come from different tables or passages of the source.

The experiment deals with hQC (Homo sapiens, UniProt Q16769). The experiment in a line: Inhibitor assay for glutaminyl cyclase activity (fluorometric, H-Gln-βNA / H-Gln-AMC). Format: biochemical. Put shortly:
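Ki values came from fitting progress curves to a competitive inhibition model; rapid screens used 4 mM inhibitor with substrate at KM. QC activity was read at 30 °C via auxiliary pyroglutamyl aminopeptidase releasing βNA (0.2 mM H-Gln-βNA, 0.2 M Tris pH 8.0, 20 mM EDTA) or AMC (0.05 M Tris pH 8.0, 5 mM EDTA).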

Setting [1] is: compound from preparative synthesis, purified, read-out: IC50 hQC.

Sequence of hQC (Q16769 29-361): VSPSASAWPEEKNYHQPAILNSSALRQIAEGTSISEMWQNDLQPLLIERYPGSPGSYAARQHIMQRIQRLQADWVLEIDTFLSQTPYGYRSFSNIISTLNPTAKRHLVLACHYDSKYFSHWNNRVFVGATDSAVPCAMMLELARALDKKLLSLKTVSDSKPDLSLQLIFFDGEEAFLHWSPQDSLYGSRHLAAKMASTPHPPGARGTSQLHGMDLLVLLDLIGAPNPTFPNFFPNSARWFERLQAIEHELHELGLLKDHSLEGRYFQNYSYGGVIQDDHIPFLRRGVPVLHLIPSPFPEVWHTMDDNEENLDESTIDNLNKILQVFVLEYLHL

As for `CCCCCC1=C(O)C(=O)N(CCCn2ccnc2)C1c1ccccc1F` (centres unmarked) [Compound 217, 5-(2-Fluoro-phenyl)-3-hydroxy-1-(3-imidazol-1-yl-propyl)-4-pentyl-1,5-dihydro-pyrrol-2-one], the IC50 reads like this: under setting [1], 1540 nM; (read-out: IC50) 40 nM.

In the case of `CCC1=C(O)C(=O)N(CCCn2ccnc2)C1c1ccccn1` (centres unmarked) [Compound 243, 4-Ethyl-3-hydroxy-1-(3-imidazol-1-yl-propyl)-5-pyridin-2-yl-1,5-dihydro-pyrrol-2-one], the IC50 (read-out: IC50) is 400 nM.

Regarding `CC(C)C1=C(O)C(=O)N(c2ccc3[nH]cnc3c2)C1c1csc2ccccc12` (centres unmarked) [Compound 275, 5-Benzo[b]thiophen-3-yl-1-(1H-benzoimidazol-5-yl)-3-hydroxy-4-isopropyl-1,5-dihydro-pyrrol-2-one], the IC50 (read-out: IC50) was found to be 6070 nM.

Take `CC1=C(O)C(=O)N(c2ccc3[nH]cnc3c2)C1c1nccs1` (centres unmarked) [Compound 326, 1-(1H-Benzoimidazol-5-yl)-3-hydroxy-4-methyl-5-thiazol-2-yl-1,5-dihydro-pyrrol-2-one]: where the note is “read-out: IC50”, the IC50 came out at 3280 nM.

In the case of `CCCCCC1=C(O)C(=O)N(CCCn2ccnc2)C1c1ccccn1` (centres unmarked) [Compound 208, 3-Hydroxy-1-(3-imidazol-1-yl-propyl)-4-pentyl-5-pyridin-2-yl-1,5-dihydro-pyrrol-2-one], for the setting “read-out: IC50”, the IC50 came to 400 nM.

Consider `CC(C)C1=C(O)C(=O)N(CCCn2ccnc2)C1c1cc[nH]n1` (centres unmarked) [Compound 56, 3-Hydroxy-1-(3-imidazol-1-yl-propyl)-4-isopropyl-5-(1H-pyrazol-3-yl)-1,5-dihydro-pyrrol-2-one], for which the IC50 (read-out: IC50) came out at 2200 nM.

With `COc1ccc(C2C(c3ccc(O)cc3)=C(O)C(=O)N2CCCn2ccnc2)cc1` (centres unmarked) [Compound 156, 3-Hydroxy-4-(4-hydroxy-phenyl)-1-(3-imidazol-1-yl-propyl)-5-(4-methoxy-phenyl)-1,5-dihydro-pyrrol-2-one], the IC50 reads like this: under setting [1], 88 nM; (read-out: IC50) 40 nM.

Take `O=C1C(O)=C(c2cccc(O)c2)C(c2ccc3[nH]ccc3c2)N1CCCn1ccnc1` (centres unmarked) [Compound 12, 3-Hydroxy-4-(3-hydroxy-phenyl)-1-(3-imidazol-1-yl-propyl)-5-(1H-indol-5-yl)-1,5-dihydro-pyrrol-2-one]: the IC50 (read-out: IC50) is 1300 nM.

Consider `O=C(O)CC1=C(O)C(=O)N(c2ccc3[nH]cnc3c2)C1c1cccc2cccnc12` (centres unmarked) [Compound 354, [1-(1H-Benzoimidazol-5-yl)-4-hydroxy-5-oxo-2-quinolin-8-yl-2,5-dihydro-1H-pyrrol-3-yl]-acetic acid], for which the IC50 (read-out: IC50) was found to be 8770 nM.

With `CC1=C(O)C(=O)N(CCCn2ccnc2)C1/C=C/C(C)C` (centres unmarked) [Compound 24, 3-Hydroxy-1-(3-imidazol-1-yl-propyl)-4-methyl-5-(3-methyl-but-1-enyl)-1,5-dihydro-pyrrol-2-one], the IC50 (read-out: IC50) worked out at 5800 nM.

In the case of `CCCCCC1C(CC)=C(O)C(=O)N1CCCn1ccnc1` (centres unmarked) [Compound 232, 4-Ethyl-3-hydroxy-1-(3-imidazol-1-yl-propyl)-5-pentyl-1,5-dihydro-pyrrol-2-one], under “read-out: IC50”, the concentration for half-maximal inhibition (IC50) was found to be 40 nM.

For `O=C1C(O)=C(c2ccccc2)C(c2ccc(O)cc2)N1CCCn1ccnc1` (centres unmarked) [Compound 111, 3-Hydroxy-5-(4-hydroxy-phenyl)-1-(3-imidazol-1-yl-propyl)-4-phenyl-1,5-dihydro-pyrrol-2-one], the IC50 (read-out: IC50) turned out to be 400 nM.

With `CC(=O)C1=C(O)C(=O)N(c2ccc3[nH]cnc3c2)C1c1cc[n+]([O-])cc1` (centres unmarked) [Compound 397, 4-Acetyl-1-(1H-benzoimidazol-5-yl)-3-hydroxy-5-(1-oxy-pyridin-4-yl)-1,5-dihydro-pyrrol-2-one], under “read-out: IC50”, the IC50 amounted to 1210 nM.

As to `CC1=C(O)C(=O)N(c2ccc3[nH]cnc3c2)C1c1cc(Cl)ccc1O` (centres unmarked) [Compound 337, 1-(1H-Benzoimidazol-5-yl)-5-(5-chloro-2-hydroxy-phenyl)-3-hydroxy-4-methyl-1,5-dihydro-pyrrol-2-one], the concentration for half-maximal inhibition (IC50) (read-out: IC50) was determined as 5800 nM.

With `CCCCCC1=C(O)C(=O)N(CCCn2ccnc2)C1C` (centres unmarked) [Compound 197, 3-Hydroxy-1-(3-imidazol-1-yl-propyl)-5-methyl-4-pentyl-1,5-dihydro-pyrrol-2-one], the IC50 (read-out: IC50) worked out at 40 nM.

In the case of `CCC1=C(O)C(=O)N(CCCn2ccnc2)C1c1ccc(C)o1` (centres unmarked) [Compound 227, 4-Ethyl-3-hydroxy-1-(3-imidazol-1-yl-propyl)-5-(5-methyl-furan-2-yl)-1,5-dihydro-pyrrol-2-one], the IC50 (read-out: IC50) was 2200 nM.

With `CCC1=C(O)C(=O)N(CCCn2ccnc2)C1C` (centres unmarked) [Compound 233, 4-Ethyl-3-hydroxy-1-(3-imidazol-1-yl-propyl)-5-methyl-1,5-dihydro-pyrrol-2-one], the IC50 (read-out: IC50) was found to be 2200 nM.

With `CCCC(=O)C1=C(O)C(=O)N(c2ccc3[nH]cnc3c2)C1C1CC1` (centres unmarked) [Compound 449, 1-(1H-Benzoimidazol-5-yl)-4-butyryl-5-cyclopropyl-3-hydroxy-1,5-dihydro-pyrrol-2-one], the IC50 (read-out: IC50) was 2200 nM.

For the molecule `Cc1cccc(C2C(c3cccc(O)c3)=C(O)C(=O)N2c2ccc3[nH]cnc3c2)c1` (centres unmarked) [Compound 434, 1-(1H-Benzoimidazol-5-yl)-3-hydroxy-4-(3-hydroxy-phenyl)-5-m-tolyl-1,5-dihydro-pyrrol-2-one], under “read-out: IC50”, the IC50 stood at 3640 nM.

For the molecule `CCC1=C(O)C(=O)N(CCCn2ccnc2)C1c1ccccc1F` (centres unmarked) [Compound 250, 4-Ethyl-5-(2-fluoro-phenyl)-3-hydroxy-1-(3-imidazol-1-yl-propyl)-1,5-dihydro-pyrrol-2-one], the IC50 (read-out: IC50) was 1300 nM.

`Cc1cccc(C2C(C(=O)C3CC3)=C(O)C(=O)N2c2ccc3[nH]cnc3c2)c1` (centres unmarked) [Compound 260, 1-(1H-Benzoimidazol-5-yl)-4-cyclopropanecarbonyl-3-hydroxy-5-m-tolyl-1,5-dihydro-pyrrol-2-one]: under “read-out: IC50”, the IC50 was 40 nM.

As to `Cc1ccc(C2C(c3c[nH]c4ccccc34)=C(O)C(=O)N2CCCn2ccnc2)cc1C` (centres unmarked) [Compound 123, 5-(3,4-Dimethyl-phenyl)-3-hydroxy-1-(3-imidazol-1-yl-propyl)-4-(1H-indol-3-yl)-1,5-dihydro-pyrrol-2-one], the IC50 by setting is: under setting [1], 562 nM; (read-out: IC50) 40 nM.

As for `CC(C)/C=C/C1C(c2ccc(O)cc2)=C(O)C(=O)N1CCCn1ccnc1` (centres unmarked) [Compound 153, 3-Hydroxy-4-(4-hydroxy-phenyl)-1-(3-imidazol-1-yl-propyl)-5-(3-methyl-but-1-enyl)-1,5-dihydro-pyrrol-2-one], the IC50 (read-out: IC50) came to 2200 nM.

In the case of `CCC1=C(O)C(=O)N(CCCn2ccnc2)C1c1c[nH]c2ccccc12` (centres unmarked) [Compound 241, 4-Ethyl-3-hydroxy-1-(3-imidazol-1-yl-propyl)-5-(1H-indol-3-yl)-1,5-dihydro-pyrrol-2-one], the IC50 (read-out: IC50) worked out at 40 nM.

`O=C1C(O)=C(c2c[nH]c3ccccc23)C(c2ccccc2O)N1CCCn1ccnc1` (centres unmarked) [Compound 122, 3-Hydroxy-5-(2-hydroxy-phenyl)-1-(3-imidazol-1-yl-propyl)-4-(1H-indol-3-yl)-1,5-dihydro-pyrrol-2-one]: where the note is “read-out: IC50”, the IC50 worked out at 40 nM.

As for `CCCCC1C(CC)=C(O)C(=O)N1CCCn1ccnc1` (centres unmarked) [Compound 248, 5-Butyl-4-ethyl-3-hydroxy-1-(3-imidazol-1-yl-propyl)-1,5-dihydro-pyrrol-2-one], the IC50 (read-out: IC50) amounted to 2200 nM.

For `CCC1=C(O)C(=O)N(CCCn2ccnc2)C1/C=C/C(C)C` (centres unmarked) [Compound 226, 4-Ethyl-3-hydroxy-1-(3-imidazol-1-yl-propyl)-5-(3-methyl-but-1-enyl)-1,5-dihydro-pyrrol-2-one], the IC50 (read-out: IC50) was 3100 nM.

In the case of `O=C1C(O)=C(c2ccc(O)cc2)C(c2ccccn2)N1CCCn1ccnc1` (centres unmarked) [Compound 171, 3-Hydroxy-4-(4-hydroxy-phenyl)-1-(3-imidazol-1-yl-propyl)-5-pyridin-2-yl-1,5-dihydro-pyrrol-2-one], the IC50 (read-out: IC50) is 400 nM.

Take `O=C1C(O)=C(c2ccc(O)cc2)C(c2ccc3[nH]ccc3c2)N1CCCn1ccnc1` (centres unmarked) [Compound 155, 3-Hydroxy-4-(4-hydroxy-phenyl)-1-(3-imidazol-1-yl-propyl)-5-(1H-indol-5-yl)-1,5-dihydro-pyrrol-2-one]: the IC50 is, setting by setting: under setting [1], 370 nM; (read-out: IC50) 40 nM.

In the case of `CC(=O)C1=C(O)C(=O)N(c2ccc3[nH]cnc3c2)C1c1ccc2nsnc2c1` (centres unmarked) [Compound 376, 4-Acetyl-1-(1H-benzoimidazol-5-yl)-5-benzo[c][1,2,5]thiadiazol-5-yl-3-hydroxy-1,5-dihydro-pyrrol-2-one], the IC50 runs as follows: under setting [1], 8.7 nM; (read-out: IC50) 4 nM.

`CC1=C(O)C(=O)N(c2ccc3nc[nH]c3c2)C1c1c(F)ccc(F)c1Cl` (centres unmarked) [Compound 472, 1-(1H-benzo[d]imidazol-6-yl)-5-(2-chloro-3,6-difluorophenyl)-3-hydroxy-4-methyl-1H-pyrrol-2(5H)-one] showed a Ki (compound from preparative synthesis, purified) of 55.8 nM. Where the note is “read-out: IC50”, the IC50 was determined as 470 nM.

With `CCC/C=C/C1C(c2ccccc2)=C(O)C(=O)N1CCCn1ccnc1` (centres unmarked) [Compound 78, 3-Hydroxy-1-(3-imidazol-1-yl-propyl)-5-(pent-1-enyl)-4-phenyl-1,5-dihydro-pyrrol-2-one], the IC50 (read-out: IC50) turned out to be 40 nM.

For the molecule `Cc1ccc(C2C(C(=O)c3ccc(Cl)cc3)=C(O)C(=O)N2c2ccc3[nH]cnc3c2)o1` (centres unmarked) [Compound 459, 1-(1H-Benzoimidazol-5-yl)-4-(4-chloro-benzoyl)-3-hydroxy-5-(5-methyl-furan-2-yl)-1,5-dihydro-pyrrol-2-one], the IC50 (read-out: IC50) is 2110 nM.

In the case of `Cc1cc(C2C(c3cccc(O)c3)=C(O)C(=O)N2c2ccc3[nH]cnc3c2)oc1C` (centres unmarked) [Compound 307, 1-(1H-Benzoimidazol-5-yl)-5-(4,5-dimethyl-furan-2-yl)-3-hydroxy-4-(3-hydroxy-phenyl)-1,5-dihydro-pyrrol-2-one], under “read-out: IC50”, the IC50 came to 2830 nM.

`O=C1C(O)=C(c2c[nH]c3ccccc23)C(c2cccc3cccnc23)N1c1ccc2[nH]cnc2c1` (centres unmarked) [Compound 281, 1-(1H-Benzoimidazol-5-yl)-3-hydroxy-4-(1H-indol-3-yl)-5-quinolin-8-yl-1,5-dihydro-pyrrol-2-one]: the IC50 (read-out: IC50) came to 5890 nM.

The IC50 is the concentration that inhibits the measured activity by half. As usually defined, the Ki is a dissociation constant, usually derived from enzyme kinetics or from competition with a known ligand. A lower Ki goes with tighter binding.
